Data set [1] has as its system HepG2 cells. Briefly: Glu/Gal assay: cellular ATP (CellTiter-Glo) after 24 h in glucose or galactose media. To be noted: for AC50 / minimal effective concentration: Homo sapiens, HepG2, 24 h.
For data set [2] the following is noted: literature values, plasma or serum of adult humans when possible; ref 68-88 (per drug, Table 2 Cmax Reference); cited from earlier work.
Data set [3] has as its system HepG2 cells. Briefly: Acute extracellular flux (AEF) assay in intact HepG2 cells (Seahorse XFe96). The format is cell-based, human. To be noted: Homo sapiens; for minimal effective concentration: HepG2, minimum effective concentration crossing vehicle control threshold.
The mark [4] stands for this setting: HepG2, concentration at which 50% maximum effect is observed, read-out: AC50 ATP Production.
Setting [5] is: HepG2, concentration at which 50% maximum effect is observed, read-out: AC50 ECAR.
Setting [6] is: HepG2, concentration at which 50% maximum effect is observed, read-out: AC50 OCR.
The mark [7] stands for this setting: HepG2, concentration at which 50% maximum effect is observed, read-out: AC50 Reserve Capacity.
The mark [8] stands for this setting: HepG2, concentration at which 50% maximum effect is observed, read-out: AC50 Proton Leak.

As for `CCN1CCCC1CNC(=O)c1cc(S(=O)(=O)CC)c(N)cc1OC` (stereo not shown) [Amisulpride], the “Effect on cell viability / ATP in Glu and Gal media (in words)” value in the data set with HepG2 cells [1] (24 h incubation, top concentration) was “did not show any effect on ATP production in any of the media conditions”. Besides, the highest concentration (Cmax) in data set [2] was 2560 nM.
For the molecule `O=C1CCc2ccc(OCCCCN3CCN(c4cccc(Cl)c4Cl)CC3)cc2N1` [Aripiprazole], the half-maximal activity concentration (AC50) was 9.17 µM in the data set on HepG2 cells [1] (read-out: Gal AC50); above 10 µM with HepG2 cells [3] (setting [4]); above 10 µM with HepG2 cells [3] (setting [5]); above 10 µM in the data set with HepG2 cells [3] (setting [6]); above 10 µM in the data set with HepG2 cells [3] (setting [7]). In addition, the minimal effective concentration was found to be 5.67 µM in the data set on HepG2 cells [1] (read-out: Gal MEC); 3.49 µM in the data set on HepG2 cells [3] (read-out: MEC ATP Production); 9.2 µM in the data set on HepG2 cells [3] (read-out: MEC ECAR); 2.06 µM with HepG2 cells [3] (read-out: MEC OCR); 0.344 µM in the data set with HepG2 cells [3] (read-out: MEC Reserve Capacity). Further, the Cmax in data set [2] was 700 nM.
Regarding `CN(C)CCCC1(c2ccc(F)cc2)OCc2cc(C#N)ccc21` (stereo not shown) [Citalopram], the “reduction in cell viability” value with HepG2 cells [1] (10 µM, both media conditions, 24 h) is given as “around 40%”. Moreover, the AC50 in the data set on HepG2 cells [1] (read-out: Gal AC50), in the data set with HepG2 cells [1] (read-out: Glu AC50), in the data set with HepG2 cells [3] (setting [4]), in the data set on HepG2 cells [3] (setting [5]), in the data set with HepG2 cells [3] (setting [6]) and in the data set with HepG2 cells [3] (setting [8]) was above 10 µM in each case. Besides, the AC50 in the data set on HepG2 cells [3] (setting [7]) was above 10 µM. The minimal effective concentration turned out to be 7.11 µM in the data set with HepG2 cells [1] (read-out: Gal MEC), 4.43 µM with HepG2 cells [1] (read-out: Glu MEC) and 7.17 µM in the data set with HepG2 cells [3] (read-out: MEC Proton Leak). The Cmax in data set [2] is 100 nM.
As for `CCC1(c2ccccc2)C(=O)NC(=O)NC1=O` [Phenobarbital], the AC50 with HepG2 cells [1] (read-out: Gal AC50) was above 100 µM; in the data set with HepG2 cells [1] (read-out: Glu AC50), above 100 µM; in the data set with HepG2 cells [3] (HepG2, read-out: AC50 ATP Production), above 100 µM; with HepG2 cells [3] (HepG2, read-out: AC50 ECAR) it was above 100 µM; in the data set with HepG2 cells [3] (HepG2, read-out: AC50 OCR), above 100 µM; with HepG2 cells [3] (HepG2, read-out: AC50 Proton Leak), above 100 µM. The AC50 in the data set on HepG2 cells [3] (HepG2, read-out: AC50 Reserve Capacity) was above 100 µM.
Turning to `O=C1NC(=O)C(c2ccccc2)(c2ccccc2)N1` [Phenytoin], the concentration at half-maximal activity (AC50) with HepG2 cells [1] (read-out: Gal AC50), in the data set with HepG2 cells [1] (read-out: Glu AC50), in the data set with HepG2 cells [3] (setting [4]), with HepG2 cells [3] (setting [5]), with HepG2 cells [3] (setting [6]) and in the data set on HepG2 cells [3] (setting [8]) was above 200 µM each time. Further, the AC50 with HepG2 cells [3] (setting [7]) amounted to 26.6 µM. In addition, the Cmax in data set [2] was 30000 nM. The minimal effective concentration in the data set with HepG2 cells [3] (read-out: MEC ATP Production) was 197 µM; in the data set with HepG2 cells [3] (read-out: MEC ECAR) it was 138 µM; in the data set on HepG2 cells [3] (read-out: MEC OCR) it was 90.9 µM; in the data set on HepG2 cells [3] (read-out: MEC Reserve Capacity), 1.45 µM.
In the case of `CCC1(c2ccccc2)C(=O)NCNC1=O` [Primidone], the AC50 in the data set with HepG2 cells [1] (read-out: Gal AC50), in the data set with HepG2 cells [1] (read-out: Glu AC50), with HepG2 cells [3] (setting [4]), with HepG2 cells [3] (setting [5]), in the data set with HepG2 cells [3] (setting [6]) and in the data set on HepG2 cells [3] (setting [8]) was above 100 µM each time. The AC50 in the data set with HepG2 cells [3] (setting [7]) is above 100 µM.
Turning to `COC(=O)[C@H]1[C@H]2C[C@@H]3c4[nH]c5cc(OC)ccc5c4CCN3C[C@H]2C[C@@H](OC(=O)c2cc(OC)c(OC)c(OC)c2)[C@@H]1OC` [Reserpine], the AC50 is 79 µM with HepG2 cells [1] (read-out: Gal AC50); 48.9 µM in the data set with HepG2 cells [1] (read-out: Glu AC50); 77.3 µM in the data set with HepG2 cells [3] (setting [4]); above 100 µM in the data set on HepG2 cells [3] (setting [6]); 36.8 µM with HepG2 cells [3] (setting [8]). In addition, the minimal effective concentration stood at 19 µM with HepG2 cells [1] (read-out: Gal MEC); 6.68 µM with HepG2 cells [1] (read-out: Glu MEC); 59.4 µM in the data set with HepG2 cells [3] (read-out: MEC ATP Production); 60.3 µM with HepG2 cells [3] (read-out: MEC OCR); 30 µM in the data set with HepG2 cells [3] (read-out: MEC Proton Leak). For the same molecule, the Cmax in data set [2] is 0.4 nM.
For `C=CC(N)CCC(=O)O` (stereo not shown) [Vigabatrin], the AC50 in the data set on HepG2 cells [1] (read-out: Gal AC50), in the data set on HepG2 cells [1] (read-out: Glu AC50), in the data set on HepG2 cells [3] (setting [4]), with HepG2 cells [3] (setting [5]), with HepG2 cells [3] (setting [6]) and in the data set with HepG2 cells [3] (setting [8]) was above 1000 µM throughout. Further, the AC50 with HepG2 cells [3] (setting [7]) was above 1000 µM. In data set [2], the Cmax is 4000 nM.
